The text below walks through data of ChEMBL document CHEMBL3244171, “[1-(beta-mercapto-beta,beta-cyclopentamethylenepropionic acid),4-valine,-8-D-arginine]vasopressin, a potent and selective inhibitor of the vasopressor response to arginine-vasopressin” (J Med Chem, 1978).

A short description of experiment [1]: Antioxytocic activity in rat uterus assessed as antagonist activity on oxytocin-induced effect. The class given is functional, tissue-based.
For another experiment, the system named is Rattus norvegicus. In words: Antidiuretic activity in iv dosed rat assessed as agonist activity on arginine-vasopressin-induced effect. Format: functional, Urine.

SMILES strings stand for the structures. Where a SMILES comes first, the peptide text is derived from it.

In general, pA2 refers to a measure of antagonist potency on a negative log scale. Turning to `CC(C)[C@@H]1NC(=O)[C@H](Cc2ccccc2)NC(=O)[C@H](Cc2ccc(O)cc2)NC(=O)CC(C)(C)SSC[C@@H](C(=O)N2CCC[C@H]2C(=O)N[C@H](CCCNC(=N)N)C(=O)NCC(N)=O)NC(=O)[C@H](CC(N)=O)NC1=O` (HELM PEPTIDE1{Y.F.V.N.C.P.[dR].G.[am]}|CHEM1{[CC(C)(CC(=O)[*:1])S[*:2]]}$PEPTIDE1,CHEM1,1:R1-1:R1|PEPTIDE1,CHEM1,5:R3-1:R2$$$V2.0), in experiment [1], the pA2 turned out to be 7.23.
Consider `CC(C)[C@@H]1NC(=O)[C@H](Cc2ccccc2)NC(=O)[C@H](Cc2ccc(O)cc2)NC(=O)CC2(CCCCC2)SSC[C@@H](C(=O)N2CCC[C@H]2C(=O)N[C@H](CCCN=C(N)N)C(=O)NCC(N)=O)NC(=O)[C@H](CC(N)=O)NC1=O` (HELM PEPTIDE1{Y.F.V.N.C.P.[dR].G.[am]}|CHEM1{[O=C(CC1(S[*:2])CCCCC1)[*:1]]}$PEPTIDE1,CHEM1,1:R1-1:R1|PEPTIDE1,CHEM1,5:R3-1:R2$$$V2.0), for which, in the experiment with Rattus norvegicus, the Activity is reported as 0.1 U/ml. In experiment [1], the pA2 is recorded as 6.62.
